According to BindingDB's records for patent US10548896 (Celgene Quanticel Research, 2020):

Molecular target: Lysine-specific histone demethylase 1A (Homo sapiens, UniProt O60341)
Test: In Vitro Enzyme Inhibition Assay - LSD-1

- IC50: < 100 nM
SMILES: CN(C)C1CCN(c2nc(-c3ccc(C#N)c(F)c3)c(C3=CC4C=NN(C)C4C=C3)c(=O)n2C)CC1 (stereo unspecified) [US10548896, Example 72]
